pIC50: −log10 of the molar value. Where a name gives a salt, the structure may show the parent alone.
Biological target: T1, Recombinant human HSD17B13 enzyme (Homo sapiens, UniProt Q7Z5P4)
T1 sequence (Q7Z5P4 20-300): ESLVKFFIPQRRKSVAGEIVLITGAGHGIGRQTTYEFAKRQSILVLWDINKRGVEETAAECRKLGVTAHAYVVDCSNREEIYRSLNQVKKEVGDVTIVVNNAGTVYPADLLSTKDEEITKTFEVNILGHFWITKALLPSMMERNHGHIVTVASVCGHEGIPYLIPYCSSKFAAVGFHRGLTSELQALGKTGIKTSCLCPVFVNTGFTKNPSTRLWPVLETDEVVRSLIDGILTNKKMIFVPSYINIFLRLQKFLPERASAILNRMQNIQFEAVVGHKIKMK
Test: HSD17b13 NAD(P)H-Glo biochemical assay
Conditions: 50 uM estradiol, 1 mM NAD+, NAD(P)H-Glo luminescence; read-out: HSD17β13 IC50
Outline: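 Recombinant human HSD17B13 in 20 mM Tris pH7.4 with 0.002% Tween-20 and 0.02% BSA was preincubated with inhibitor for 20 minutes at RT. The reaction ran 3 hours at 37° C with 50 uM estradiol and 1 mM NAD+ (final). NADH formed was detected by NAD(P)H-Glo luminescence after 1 hour at RT.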

Row | SMILES | pIC50
1 | Cn1c(=O)c2cc(F)c(O)c(F)c2n1-c1ccc(N2CCC(C)(C)CC2)cc1 [Compound 37, 1-(4-(4,4-Dimethylpiperidin-1-yl)phenyl)-5,7-difluoro-6-hydroxy-2-methyl-1H-indazol-3(2H)-one] | 6.00 to 7.00
2 | CS(=O)(=O)N1CCC(c2ccc(-n3cnc4cc(F)c(O)c(F)c43)cc2)CC1 [Compound 28, 5,7-Difluoro-1-(4-(1-(methylsulfonyl)piperidin-4-yl)phenyl)-1H-benzo[d]imidazol-6-ol] | > 7.00
3 | CC1(C)CCN(c2ccc(N3C(=O)Cc4cc(F)c(O)c(F)c43)cc2)CC1 [Compound 33, 1-(4-(4,4-Dimethylpiperidin-1-yl)phenyl)-5,7-difluoro-6-hydroxyindolin-2-one] | 6.00 to 7.00
4 | N#Cc1ccc(-c2ccc(-n3ncc4cc(F)c(O)c(F)c43)cc2)cc1 [Compound 13.39, 4′-(5,7-Difluoro-6-hydroxy-1H-indazol-1-yl)-[1,1′-biphenyl]-4-carbonitrile] | > 7.00
5 | Cc1c(O)c(F)cc2cnn(-c3ccc(-c4cccc(O)c4)cc3)c12 [Compound 4.3, 5-Fluoro-1-(3′-hydroxy-[1,1′-biphenyl]-4-yl)-7-methyl-1H-indazol-6-ol] | 6.00 to 7.00
6 | Oc1cc2c(nnn2-c2ccc(N3CC4(CCOCC4)C3)cc2)c(Cl)c1F [Compound 40, 1-(4-(7-Oxa-2-azaspiro[3.5]nonan-2-yl)phenyl)-4-chloro-5-fluoro-1H-benzo[d][1,2,3]triazol-6-ol] | > 7.00
7 | CS(=O)(=O)c1ccccc1-c1ccc(-n2ncc3cc(F)c(O)cc32)cc1 [Compound 13.24, 5-Fluoro-1-(2′-(methylsulfonyl)-[1,1′-biphenyl]-4-yl)-1H-indazol-6-ol] | 4.52 to 6.00
8 | CC1(C)CCN(c2ccc(-n3c(=O)[nH]c4cc(F)c(O)c(F)c43)cc2)CC1 [Compound 11, 1-(4-(4,4-Dimethylpiperidin-1-yl)phenyl)-5,7-difluoro-6-hydroxy-1H-benzo[d]imidazol-2(3H)-one] | > 7.00
9 | CCN1CCC(c2ccc(-n3ncc4cc(F)c(O)c(F)c43)cc2)CC1 [Compound 29, 1-(4-(1-Ethylpiperidin-4-yl)phenyl)-5,7-difluoro-1H-indazol-6-ol TFA salt] | > 7.00
10 | Oc1cc2c(cnn2-c2ccc(-c3cccc(Cl)c3)cc2)cc1F [Compound 13.7, 1-(3′-Chloro-[1,1′-biphenyl]-4-yl)-5-fluoro-1H-indazol-6-ol] | 6.00 to 7.00
11 | Oc1ccc(-c2ccc(-n3ncc4c(F)cc(O)cc43)cc2)cc1 [Compound 2.7, 4-Fluoro-1-(4′-hydroxy-[1,1′-biphenyl]-4-yl)-1H-indazol-6-ol] | 6.00 to 7.00
12 | CS(=O)(=O)Nc1cccc(-c2ccc(-n3ncc4cc(F)c(O)cc43)cc2)c1 [Compound 13.33, N-(4′-(5-Fluoro-6-hydroxy-1H-indazol-1-yl)-[1,1′-biphenyl]-3-yl)methanesulfonamide] | 4.52 to 6.00
13 | CCC1(CC)CN(c2ccc(-n3ncc4cc(F)c(O)c(F)c43)cc2)C1 [Compound 24, 1-(4-(3,3-Diethylazetidin-1-yl)phenyl)-5,7-difluoro-1H-indazol-6-ol] | > 7.00

Further lines, results first:

Row | pIC50 | SMILES
14 | > 7.00 | CC1(C)CCN(c2cnc(-n3nnc4cc(F)c(O)c(F)c43)nc2)CC1 [Compound 26.20, 1-(5-(4,4-Dimethylpiperidin-1-yl)pyrimidin-2-yl)-5,7-difluoro-1H-benzo[d][1,2,3]triazol-6-ol]
15 | 6.00 to 7.00 | Oc1cccc(-c2ccc(-n3ncc4c(F)c(F)c(O)c(F)c43)cc2)c1 [Compound 15.4, 4,5,7-Trifluoro-1-(3′-hydroxy-[1,1′-biphenyl]-4-yl)-1H-indazol-6-ol]
16 | > 7.00 | Oc1c(F)cc2cnn(-c3ccc(N4CCSCC4)cc3)c2c1F [Compound 23.4, 5,7-Difluoro-1-(4-thiomorpholinophenyl)-1H-indazol-6-ol]
17 | 6.00 to 7.00 | CC1(C)CCN(c2ccc(-n3ncc4c(C(F)(F)F)c(F)c(O)cc43)cc2)CC1 [Compound 25.1, 1-(4-(4,4-Dimethylpiperidin-1-yl)phenyl)-5-fluoro-4-(trifluoromethyl)-1H-indazol-6-ol]
18 | > 7.00 | CC1(C)CCN(c2cnc(-n3ncc4cc(F)c(O)c(F)c43)cn2)CC1 [Compound 26.6, 1-(5-(4,4-Dimethylpiperidin-1-yl)pyrazin-2-yl)-5,7-difluoro-1H-indazol-6-ol]
19 | > 7.00 | CC1(C)CCCN(c2ccc(-n3ncc4cc(F)c(O)c(F)c43)cc2)C1 [Compound 23.19, 1-(4-(3,3-Dimethylpiperidin-1-yl)phenyl)-5,7-difluoro-1H-indazol-6-ol]
20 | > 7.00 | CS(=O)(=O)N1CCC(c2ccc(-n3ncc4cc(F)c(O)c(F)c43)cc2)CC1 [Compound 27.7, 5,7-Difluoro-1-(4-(1-(methylsulfonyl)piperidin-4-yl)phenyl)-1H-indazol-6-ol]
21 | 6.00 to 7.00 | CC1CN(c2ccc(-n3ncc4cc(F)c(O)c(F)c43)cc2)CC(C)[S+]1[O-] (stereo not shown) [Compound 32.3, 4-(4-(5,7-Difluoro-6-hydroxy-1H-indazol-1-yl)phenyl)-2,6-dimethylthiomorpholine 1-oxide]
22 | > 7.00 | CS(=O)(=O)N1CCN(c2ccc(-n3ncc4cc(F)c(O)c(F)c43)c(Cl)c2)CC1 [Compound 20.1, 1-(2-Chloro-4-(4-(methylsulfonyl)piperazin-1-yl)phenyl)-5,7-difluoro-1H-indazol-6-ol]
23 | 6.00 to 7.00 | CS(=O)(=O)N1CCN(c2cnc(-n3nnc4cc(F)c(O)c(F)c43)cn2)CC1 [Compound 26.19, 5,7-Difluoro-1-(5-(4-(methylsulfonyl)piperazin-1-yl)pyrazin-2-yl)-1H-benzo[d][1,2,3]triazol-6-ol]
24 | 6.00 to 7.00 | CS(=O)(=O)N1CCN(c2cnc(-n3ncc4cc(F)c(O)c(F)c43)nc2)CC1 [Compound 26.9, 5,7-Difluoro-1-(5-(4-(methylsulfonyl)piperazin-1-yl)pyrimidin-2-yl)-1H-indazol-6-ol]
25 | 6.00 to 7.00 | CC1(CO)CN(c2ccc(-n3ncc4cc(F)c(O)c(F)c43)cc2)C1 [Compound 20.16, 5,7-Difluoro-1-(4-(3-(hydroxymethyl)-3-methylazetidin-1-yl)phenyl)-1H-indazol-6-ol]
26 | > 7.00 | Oc1c(F)cc2cnn(-c3ccc(-c4cccnc4)cc3)c2c1F [Compound 14.3, 5,7-Difluoro-1-(4-(pyridin-3-yl)phenyl)-1H-indazol-6-ol]
27 | 6.00 to 7.00 | CS(=O)(=O)N1CCN(c2ccc(-n3ncc4cc(F)c(O)c(F)c43)cc2F)CC1 [Compound 23.7, 5,7-Difluoro-1-(3-fluoro-4-(4-(methylsulfonyl)piperazin-1-yl)phenyl)-1H-indazol-6-ol]
28 | > 7.00 | CS(=O)(=O)N1CC=C(c2ccc(-n3ncc4cc(F)c(O)c(F)c43)cc2)CC1 [Compound 27.4, 5,7-Difluoro-1-(4-(1-(methylsulfonyl)-1,2,3,6-tetrahydropyridin-4-yl)phenyl)-1H-indazol-6-ol]
29 | > 7.00 | Oc1c(F)cc2cnn(-c3ccc(N4CCC5(CCC5)CC4)cc3)c2c1F [Compound 23.24, 1-(4-(7-Azaspiro[3.5]nonan-7-yl)phenyl)-5,7-difluoro-1H-indazol-6-ol]
30 | > 7.00 | CC1CN(c2ccc(-n3ncc4cc(F)c(O)c(F)c43)cc2)CCO1 (stereo not shown) [Compound 20.4, 5,7-Difluoro-1-(4-(2-methylmorpholino)phenyl)-1H-indazol-6-ol]

Same assay, conditions: 3 h; at 30 uM compound; read-out: HSD17β13 % at 30 uM

Row | inhibition at 30 µM [%] | SMILES
31 | 40 | Oc1cc2c(cnn2-c2ccc(-c3ccncc3)cc2)cc1F [Compound 13.15, 5-Fluoro-1-(4-(pyridin-4-yl)phenyl)-1H-indazol-6-ol]

— patent US20240083853A1, “HSD17B13 INHIBITORS AND USES THEREOF” (FL2022-001, Inc., priority 2020, published 2024)
